As usually defined, the IC50 is the concentration that inhibits the measured activity by half.

From patent publication US10829501B2 (BRISTOL-MYERS SQUIBB COMPANY, priority 2016, dated 2020) come the findings set out here.

Where a name gives a salt, the structure may show the parent alone.

The target in one assay is ROCK2 (Homo sapiens, UniProt O75116). Put plainly: ROCK2 kinase inhibition assay (LABCHIP 3000 Reader, FITC peptide substrate).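 Note: rho kinase reaction read by separating phosphorylated from unphosphorylated peptide on chip, with inhibition of kinase activity computed per concentration across a dose-response series.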
Sequence of ROCK2 (O75116 whole entry, species assumed): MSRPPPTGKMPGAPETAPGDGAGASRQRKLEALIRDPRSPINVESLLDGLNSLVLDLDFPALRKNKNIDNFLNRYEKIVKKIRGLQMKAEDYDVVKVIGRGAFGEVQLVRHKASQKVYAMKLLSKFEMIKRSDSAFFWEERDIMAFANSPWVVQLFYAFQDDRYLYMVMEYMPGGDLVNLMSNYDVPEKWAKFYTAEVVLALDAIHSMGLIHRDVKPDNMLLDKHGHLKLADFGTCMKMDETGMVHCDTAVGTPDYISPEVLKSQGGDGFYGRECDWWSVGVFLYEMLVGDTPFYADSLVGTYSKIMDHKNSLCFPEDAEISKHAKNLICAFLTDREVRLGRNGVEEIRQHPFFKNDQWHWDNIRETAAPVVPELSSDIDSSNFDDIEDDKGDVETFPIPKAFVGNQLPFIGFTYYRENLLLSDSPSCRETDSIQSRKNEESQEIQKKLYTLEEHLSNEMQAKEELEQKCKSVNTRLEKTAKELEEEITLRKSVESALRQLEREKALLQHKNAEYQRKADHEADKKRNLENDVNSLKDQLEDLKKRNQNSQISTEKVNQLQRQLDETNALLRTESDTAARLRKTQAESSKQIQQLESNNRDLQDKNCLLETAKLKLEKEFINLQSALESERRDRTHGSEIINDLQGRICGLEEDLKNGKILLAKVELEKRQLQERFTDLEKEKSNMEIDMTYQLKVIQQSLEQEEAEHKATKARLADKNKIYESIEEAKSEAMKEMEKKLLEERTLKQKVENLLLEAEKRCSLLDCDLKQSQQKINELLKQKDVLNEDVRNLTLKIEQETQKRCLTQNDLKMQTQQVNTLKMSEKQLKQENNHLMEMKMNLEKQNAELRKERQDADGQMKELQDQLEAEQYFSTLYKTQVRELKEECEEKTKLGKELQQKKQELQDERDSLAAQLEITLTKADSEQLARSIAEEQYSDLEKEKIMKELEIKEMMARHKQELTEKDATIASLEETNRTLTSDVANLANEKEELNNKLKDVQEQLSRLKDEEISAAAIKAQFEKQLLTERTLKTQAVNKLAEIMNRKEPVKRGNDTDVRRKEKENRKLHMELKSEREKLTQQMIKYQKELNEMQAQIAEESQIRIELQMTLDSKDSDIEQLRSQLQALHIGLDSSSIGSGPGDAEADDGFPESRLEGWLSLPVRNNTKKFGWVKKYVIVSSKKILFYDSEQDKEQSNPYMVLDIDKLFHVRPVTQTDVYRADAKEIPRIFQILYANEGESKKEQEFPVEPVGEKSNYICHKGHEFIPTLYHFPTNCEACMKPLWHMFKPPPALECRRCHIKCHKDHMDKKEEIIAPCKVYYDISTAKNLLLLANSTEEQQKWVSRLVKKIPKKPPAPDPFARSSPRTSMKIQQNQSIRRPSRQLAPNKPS
Details: not given
Take `CN(C)CCNC(=O)c1cccc(-c2ccc(C(N)=O)c(OC3CC4(CC(NC(=O)c5cnn6cc(OCC(C)(C)O)ccc56)C4)C3)c2)c1` (stereo not shown) [Example 285, N3-(2-(dimethylamino)ethyl)-3′-((6-(6-(2-hydroxy-2-methylpropoxy)pyrazolo[1,5-a]pyridine-3-carboxamido)spiro[3.3]heptan-2-yl)oxy)-[1,1′-biphenyl]-3,4′-dicarboxamide]: the IC50 was in the range of 5 to 50 nM.
The same measure, in the same setting: in the case of `[H][C@]1(Oc2ncccc2C(N)=O)C[C@]2(C[C@@H](NC(=O)c3cn4ccc(OCc5ccccc5)cc4n3)C2)C1` (stereo partly drawn) [Example 463, 7-(benzyloxy)-N-((aR)-6-((3-carbamoylpyridin-2-yl)oxy)spiro 3.31 heptan-2-yl)imidazo[1,2-a]pyridine-2-carboxamide, TFA Salt] it was 50 to 250 nM; in that of `Cn1nc(C(=O)N[C@H]2CC3(C2)C[C@H](Oc2ncccc2C(N)=O)C3)c2ccc(F)cc21` (stereo partly drawn) [Example 173, N-((aR)-6-((3-carbamoylpyridin-2-yl)oxy)spiro[3.3]heptan-2-yl)-6-fluoro-1-methyl-1H-indazole-3-carboxamide, trifluoroacetate], 5 to 50 nM.
The same measure, in the same setting: in the case of `NC(=O)c1cccnc1O[C@H]1CC2(C[C@H](NC(=O)c3cnc4cc(N5CCC(F)(F)CC5)ccn34)C2)C1` (stereo partly drawn) [Example 324, N-((aR)-6-((3-carbamoylpyridin-2-yl)oxy)spiro[3.3]heptan-2-yl)-7-(4,4-difluoropiperidin-1-yl)imidazo[1,2-a]pyridine-3-carboxamide] it was under 5 nM.
On the same count and under the same terms, in the case of `CC(C)(O)COc1ccc2c(C(=O)NC3CC4(C3)CC(Oc3cc(-c5cnn(C6CC6)c5)ccc3C(N)=O)C4)cnn2c1` (stereo not shown) [Example 277, N-(6-(2-carbamoyl-5-(1-cyclopropyl-1H-pyrazol-4-yl)phenoxy)spiro[3.3]heptan-2-yl)-6-(2-hydroxy-2-methylpropoxy)pyrazolo[1,5-a]pyridine-3-carboxamide] it was 5 to 50 nM; in that of `CC(C)(O)COc1ccc2c(C(=O)NC3CC4(C3)CC(Oc3cc(-c5cccc(F)n5)ccc3C(N)=O)C4)cnn2c1` (stereo not shown) [Example 231, N-(6-(2-carbamoyl-5-(6-fluoropyridin-2-yl)phenoxy)spiro[3.3]heptan-2-yl)-6-(2-hydroxy-2-methylpropoxy)pyrazolo[1,5-a]pyridine-3-carboxamide], under 5 nM.
The compound `NC(=O)c1cccnc1O[C@H]1CC2(C[C@H](NC(=O)c3csc(-c4ccccn4)n3)C2)C1` (stereo partly drawn) [Example 130, N-((aR)-6-((3-carbamoylpyridin-2-yl)oxy)spiro [3.3]heptan-2-yl)-2-(pyridin-2-yl)thiazole-4-carboxamide, bis-trifluoroacetate] displayed an IC50 of 250 to 2500 nM.
`[H][C@]1(Oc2ccncc2C(N)=O)C[C@@]2(C[C@H](NC(=O)c3cnn4cc(OCC(C)(C)O)ccc34)C2)C1` (stereo partly drawn) [Example 44, N-((aR)-6-((3-carbamoylpyridin-4-yl)oxy)spiro[3.3]heptan-2-yl)-6-(2-hydroxy-2-methylpropoxy)pyrazolo[1,5-a]pyridine-3-carboxamide] displayed an IC50 of 250 to 2500 nM.
The same measure, in the same setting: the value for `N#Cc1cccn2c(C(=O)N[C@H]3CC4(C3)C[C@H](Oc3ncccc3C(N)=O)C4)cnc12` (stereo partly drawn) [Example 354, N-((aR)-6-((3-carbamoylpyridin-2-yl)oxy)spiro[3.3]heptan-2-yl)-8-cyanoimidazo[1,2-a]pyridine-3-carboxamide] was 50 to 250 nM.
On the same count and under the same terms, in the case of `CC(C)(O)COc1ccc2c(C(=O)NC3CC4(C3)CC(Oc3cc(-c5ccc(C(C)(C)O)nc5)ccc3C(N)=O)C4)cnn2c1` (stereo not shown) [Example 234, N-(6-(2-carbamoyl-5-(6-(2-hydroxypropan-2-yl)pyridin-3-yl)phenoxy)spiro[3.3]heptan-2-yl)-6-(2-hydroxy-2-methylpropoxy)pyrazolo[1,5-a]pyridine-3-carboxamide] it was 50 to 250 nM.
The same measure, in the same setting: the value for `Cc1nc(-c2ccccc2)oc1C(=O)N[C@H]1CC2(C1)C[C@H](Oc1ncccc1C(N)=O)C2` (stereo partly drawn) [Example 164, N-((aR)-6-((3-carbamoylpyridin-2-yl)oxy)spiro[3.3]heptan-2-yl)-4-methyl-2-phenyloxazole-5-carboxamide] was 250 to 2500 nM; that for `CC(C)(O)COc1ccc2c(C(=O)NC3CC4(C3)CC(Oc3cc(-c5ccc(F)c(-c6nnn[nH]6)c5)ccc3C(N)=O)C4)cnn2c1` (stereo not shown) [Example 299, N-(6-((4-carbamoyl-4′-fluoro-3′-(1H-tetrazol-5-yl)-[1,1′-biphenyl]-3-yl)oxy)spiro[3.3]heptan-2-yl)-6-(2-hydroxy-2-methylpropoxy)pyrazolo[1,5-a]pyridine-3-carboxamide] was 5 to 50 nM; that for `[2H]C([2H])([2H])n1cc(-c2cc(C#N)cc(C(=O)N[C@H]3CC4(C3)C[C@H](Oc3ncccc3C(N)=O)C4)c2)cn1` (stereo partly drawn) [Example 181, 2-(((aR)-6-(3-cyano-5-(1-(methyl-d3)-1H-pyrazol-4-yl)benzamido)spiro [3.3]heptan-2-yl)oxy)nicotinamide, trifluoroacetate] was under 5 nM.
Take `CN1CCN(c2ccn3c(C(=O)N[C@H]4CC5(C4)C[C@H](Oc4ccccc4C(N)=O)C5)cnc3c2)CC1` (stereo partly drawn) [Example 36, N-[(aR)-6-(2-carbamoylphenoxy)spiro [3.3]heptan-2-yl]-7-(4-methylpiperazin-1-yl)imidazo[1,2-a] pyridine-3-carboxamdie]: the IC50 was 5 to 50 nM.
For `Cn1c(C(=O)N[C@H]2CC3(C2)C[C@H](Oc2ncccc2C(N)=O)C3)cc2ccccc21` (stereo partly drawn) [Example 70, N-((aR)-6-((3-carbamoylpyridin-2-yl)oxy)spiro[3.3]heptan-2-yl)-1-methyl-1H-indole-2-carboxamide, trifluoroacetate], the IC50 was in the range of 50 to 250 nM.
Same read-out and setting: in the case of `NC(=O)c1cccnc1O[C@H]1CC2(C[C@H](NC(=O)c3cc(C(F)(F)F)cc4[nH]c(=O)[nH]c34)C2)C1` (stereo partly drawn) [Example 104, N-((aR)-6-((3-carbamoylpyridin-2-yl)oxy)spiro[3.3]heptan-2-yl)-2-oxo-6-(trifluoromethyl)-2,3-dihydro-1H-benzo[d]imidazole-4-carboxamide, trifluoroacetate] it was under 5 nM; in that of `CC(C)(O)COc1ccc2c(C(=O)N[C@H]3CC4(C3)C[C@H](Oc3cc(Br)ccc3C(N)=O)C4)cnn2c1` (stereo partly drawn) [Example 302, N-((aR)-6-(5-bromo-2-carbamoylphenoxy)spiro[3.3]heptan-2-yl)-6-(2-hydroxy-2-methylpropoxy)pyrazolo[1,5-a]pyridine-3-carboxamide], under 5 nM.
As for `COc1cc(C(=O)N[C@H]2CC3(C2)C[C@H](Oc2ncccc2C(N)=O)C3)ccc1-n1cnc(C)c1` (stereo partly drawn) [Example 79, 2-((aR)-6-(3-methoxy-4-(4-methyl-1H-imidazol-1-yl)benzamido)spiro-[3.3]heptan-2-yl)oxy) nicotinamide, trifluoroacetate], the IC50 was in the range of 50 to 250 nM.
Compound `Cn1cc(-c2ccn3c(C(=O)N[C@H]4CC5(C4)C[C@H](Oc4ccccc4C(N)=O)C5)cnc3c2)cn1` (stereo partly drawn) [Example 34, N-[(aR)-6-(2-carbamoylphenoxy)spiro [3.3]heptan-2-yl]-7-(1-methyl-1H-pyrazol-4-yl)imidazo [1,2-a]pyridine-3-carboxamide] showed an IC50 of 5 to 50 nM.
The same measure, in the same setting: the value for `NC(=O)c1ccccc1O[C@H]1CC2(C[C@H](NC(=O)c3cnn4cc(OC(F)F)ccc34)C2)C1` (stereo partly drawn) [Example 24, N-[(aR)-6-(2-carbamoylphenoxy)spiro[3.3]heptan-2-yl]-6-(difluoromethoxy)pyrazolo [1,5-a]pyridine-3-carboxamide] was 5 to 50 nM.
With `CC1(C)Cc2cccc(C(=O)N[C@H]3CC4(C3)C[C@H](Oc3ncccc3C(N)=O)C4)c2O1` (stereo partly drawn) [Example 163, 2-(((aR)-6-(2,2-dimethyl-2,3-dihydrobenzofuran-7-carboxamido)spiro[3.3]heptan-2-yl)oxy) nicotinamide], the IC50 was 250 to 2500 nM.
With `NC(=O)c1cccnc1O[C@H]1CC2(C[C@H](NC(=O)c3cnn4c(C5CC5)c(OCCOCC(F)(F)F)ccc34)C2)C1` (stereo partly drawn) [Example 340, N-((aR)-6-((3-carbamoylpyridin-2-yl)oxy)spiro[3.3]heptan-2-yl)-7-cyclopropyl-6-(2-(2,2,2-trifluoroethoxy)ethoxy)pyrazolo[1,5-a]pyridine-3-carboxamide], the IC50 lay within 5 to 50 nM.
As for `Cc1ccc(OC2CC3(CC(NC(=O)c4cnn5c(C6CC6)c(OCC(C)(C)O)ccc45)C3)C2)c(C(N)=O)c1` (stereo not shown) [Example 216, N-(6-(2-carbamoyl-4-methylphenoxy)spiro[3.3]heptan-2-yl)-7-cyclopropyl-6-(2-hydroxy-2-methylpropoxy)pyrazolo[1,5-a]pyridine-3-carboxamide], the IC50 was in the range of 5 to 50 nM.
On the same count and under the same terms, the value for `NC(=O)c1cccnc1O[C@H]1CC2(C[C@H](NC(=O)c3cnn4cc(OC5CCS(=O)(=O)CC5)ccc34)C2)C1` (stereo partly drawn) [Example 339, N-((aR)-6-((3-carbamoylpyridin-2-yl)oxy)spiro[3.3]heptan-2-yl)-6-((1,1-dioxidotetrahydro-2H-thiopyran-4-yl)oxy)pyrazolo[1,5-a]pyridine-3-carboxamide] was 5 to 50 nM.
`NC(=O)c1cccnc1O[C@H]1CC2(C[C@H](NC(=O)c3cnn4cc(OCC(O)C(F)(F)F)ccc34)C2)C1` (stereo partly drawn) [Example 314, N-((aR)-6-((3-carbamoylpyridin-2-yl)oxy)spiro[3.3]heptan-2-yl)-6-(3,3,3-trifluoro-2-hydroxypropoxy)pyrazolo[1,5-a]pyridine-3-carboxamide] had an IC50 of under 5 nM.
The same measure, in the same setting: the value for `CN(C)CCCc1ccc(C(N)=O)c(OC2CC3(CC(NC(=O)c4cnn5c(C6CC6)c(OCC(C)(C)O)ccc45)C3)C2)c1` (stereo not shown) [Example 263, N-(6-(2-carbamoyl-5-(3-(dimethylamino)propyl)phenoxy)spiro[3.3]heptan-2-yl)-7-cyclopropyl-6-(2-hydroxy-2-methylpropoxy)pyrazolo[1,5-a]pyridine-3-carboxamide] was 5 to 50 nM.

Staying with this assay, now noted: read-out: ROCK2 Activity (ROCK2 IC50); 5 μM ATP, 1.5 μM peptide substrate, pH 7.5.
“N-((aR)-6-((3- carbamoylpyridin-2- yl)oxy)spiro[3.3] heptan-2-yl)- 6-(3-hydroxy-3- methylbutoxy) pyrazolo[1,5- a]pyridine-3- carboxamide, trifluoroacetate [Example 123]”: the IC50 fell in the range of 5 to 50 nM.
Regarding `Cn1cc2c(C(=O)NC3CC4(C3)CC(Oc3ncccc3C(N)=O)C4)cc(Br)cc2n1` [Example 424, 6-bromo-N-((aR)-6-((3-carbamoylpyridin-2-yl)oxy)spiro[3.3]heptan-2-yl)-2-methyl-2H-indazole-4-carboxamide], the IC50 is 5 to 50 nM.
